# pIC50: −log10 of the molar value. Calls of active or inactive are those of the source. No cut-off for these calls is given here.
# Legend:
# [1] = Inhibition of Trichoderma chitinase T1 using [4MU-(GlcNAc)3] as substrate
# [2] = target: Chitinase-like protein 3 (Mus musculus) (UniProt O35744); experiment: Binding affinity to Ym1 in IL-13-induced asthmatic A/J mouse BAL fluid after 1 hrs by photoaffinity labeling study
# [3] = target: Chitinase-like protein 3 (Mus musculus) (UniProt O35744); experiment: Binding affinity to recombinant His-tagged mouse Ym1 expressed in Escherichia coli after 1 hrs by photoaffinity labeling study
# [4] = test system: Alpha-1-antiproteinase (Mus musculus); experiment: Binding affinity to alpha-1 antitrypsin in IL-13-induced asthmatic A/J mouse BAL fluid after 1 hrs by photoaffinity labeling study
# [5] = Stability of the compound in 0.05 M HCl for 30 mins at room temperature; type: physicochemical; settings: buffer, 0.5 h
# [6] = Stability of the compound in 0.05 M NaOH for 30 mins at room temperature; type: physicochemical; settings: 0.5 h
# Chain of Chitinase-like protein 3 (Mus musculus) (O35744 whole entry): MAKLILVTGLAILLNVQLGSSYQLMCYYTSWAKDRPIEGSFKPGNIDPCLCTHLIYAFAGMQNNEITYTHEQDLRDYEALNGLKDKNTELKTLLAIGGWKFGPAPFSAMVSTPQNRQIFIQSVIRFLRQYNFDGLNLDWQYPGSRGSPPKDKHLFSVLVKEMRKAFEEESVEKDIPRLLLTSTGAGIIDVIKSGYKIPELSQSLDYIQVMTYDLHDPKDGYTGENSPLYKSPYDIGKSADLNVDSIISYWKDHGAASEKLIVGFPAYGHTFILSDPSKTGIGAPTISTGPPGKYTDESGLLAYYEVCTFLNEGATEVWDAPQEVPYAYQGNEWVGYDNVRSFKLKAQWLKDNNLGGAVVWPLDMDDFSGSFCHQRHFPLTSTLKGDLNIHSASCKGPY
SMILES,pIC50 [1],also measured
CNC1=N[C@@H]2[C@@H](O)[C@H](O[C@@H]3O[C@H](CO)[C@@H](O[C@@H]4O[C@H](CO)[C@@H](O)[C@@H](O)[C@H]4NC(=O)CCSSCCNC(=O)CCCCC4SCC5NC(=O)NC54)[C@@H](O)[C@H]3NC(C)=O)[C@@H](CO)[C@@H]2O1 (some centres not stated),5.10,
CC(=O)N[C@H]1[C@H](O[C@H]2[C@@H](O)[C@@H](NC(C)=O)[C@H](O[C@H]3[C@H](O)[C@H]4N=C(N(C)C)O[C@H]4[C@@H]3CO)O[C@@H]2CO)O[C@H](CO)[C@@H](O)[C@H]1O [ALLOSAMIDIN],5.27,
CC(=O)N[C@H]1[C@H](O[C@H]2[C@@H](O)[C@@H](NC(=O)CCSSCCNC(=O)C(CCCCNC(=O)CCCCC3SCC4NC(=O)NC43)NC(=O)c3ccc(N=[NH+][NH-])cc3)[C@H](O[C@H]3[C@H](O)[C@H]4N=C(N(C)C)O[C@H]4[C@@H]3CO)O[C@@H]2CO)O[C@H](CO)[C@@H](O)[C@H]1O (some centres not stated),3.90,
CC(=O)N[C@H]1[C@H](O[C@H]2[C@@H](O)[C@@H](NC(=O)CCSSCCNC(=O)CCCCC3SCC4NC(=O)NC43)[C@H](O[C@H]3[C@H](O)[C@H]4N=C(N(C)C)O[C@H]4[C@@H]3CO)O[C@@H]2CO)O[C@H](CO)[C@@H](O)[C@H]1O (some centres not stated),4.30,
CC(=O)N[C@H]1[C@H](O[C@H]2[C@H](O)[C@H]3N=C(N(C)C)O[C@H]3[C@@H]2CO)O[C@H](CO)[C@@H](O[C@@H]2O[C@H](CO)[C@@H](O)[C@@H](O)[C@H]2NC(=O)CCSSCCNC(=O)C(CCCCNC(=O)CCCCC2SCC3NC(=O)NC32)NC(=O)c2ccc(N=[NH+][NH-])cc2)[C@H]1O (some centres not stated),4.97,Activity [2]: Active; Activity [3]: Active; Activity [4]: Active
CNC1=N[C@@H]2[C@@H](O)[C@H](O[C@@H]3O[C@H](CO)[C@@H](O[C@@H]4O[C@H](CO)[C@@H](O)[C@@H](O)[C@H]4NC(=O)CCSSCCNC(=O)C(CCCCNC(=O)CCCCC4SCC5NC(=O)NC54)NC(=O)c4ccc(N=[NH+][NH-])cc4)[C@@H](O)[C@H]3NC(C)=O)[C@@H](CO)[C@@H]2O1 (some centres not stated),5.11,Activity [2]: Active; Activity [3]: Active; Activity [4]: Active
CNC1=N[C@@H]2[C@@H](O)[C@H](O[C@@H]3O[C@H](CO)[C@@H](O[C@@H]4O[C@H](CO)[C@@H](O)[C@@H](O)[C@H]4NC(C)=O)[C@@H](O)[C@H]3NC(=O)CCSSCCNC(=O)CCCCC3SCC4NC(=O)NC43)[C@@H](CO)[C@@H]2O1 (some centres not stated),4.30,
CNC1=N[C@@H]2[C@@H](O)[C@H](O[C@@H]3O[C@H](CO)[C@@H](O[C@@H]4O[C@H](CO)[C@@H](O)[C@@H](O)[C@H]4N)[C@@H](O)[C@H]3NC(C)=O)[C@@H](CO)[C@@H]2O1,4.08,
CC(=O)N[C@H]1[C@H](O[C@H]2[C@H](O)[C@H]3N=C(N(C)C)O[C@H]3[C@@H]2CO)O[C@H](CO)[C@@H](O[C@@H]2O[C@H](CO)[C@@H](O)[C@@H](O)[C@H]2N)[C@H]1O,4.46,
CC(=O)N[C@H]1[C@H](O[C@H]2[C@@H](O)[C@@H](N)[C@H](O[C@H]3[C@H](O)[C@H]4N=C(N(C)C)O[C@H]4[C@@H]3CO)O[C@@H]2CO)O[C@H](CO)[C@@H](O)[C@H]1O,4.16,
CC(=O)N[C@H]1[C@H](O[C@H]2[C@H](O)[C@H]3N=C(N(C)C)O[C@H]3[C@@H]2CO)O[C@H](CO)[C@@H](O[C@@H]2O[C@H](CO)[C@@H](O)[C@@H](O)[C@H]2NC(=O)CCSSCCNC(=O)CCCCC2SCC3NC(=O)NC32)[C@H]1O (some centres not stated),5.44,Stability [5]: Stable; Stability [6]: Stable
CNC1=N[C@@H]2[C@@H](O)[C@H](O[C@@H]3O[C@H](CO)[C@@H](O[C@@H]4O[C@H](CO)[C@@H](O)[C@@H](O)[C@H]4NC(C)=O)[C@@H](O)[C@H]3NC(C)=O)[C@@H](CO)[C@@H]2O1 [DEMETHYLALLOSAMIDIN],4.99,
CNC1=N[C@@H]2[C@@H](O)[C@H](O[C@@H]3O[C@H](CO)[C@@H](O[C@@H]4O[C@H](CO)[C@@H](O)[C@@H](O)[C@H]4NC(C)=O)[C@@H](O)[C@H]3NC(=O)CCSSCCNC(=O)C(CCCCNC(=O)CCCCC3SCC4NC(=O)NC43)NC(=O)c3ccc(N=[NH+][NH-])cc3)[C@@H](CO)[C@@H]2O1 (some centres not stated),3.81,
CNC1=N[C@@H]2[C@@H](O)[C@H](O[C@@H]3O[C@H](CO)[C@@H](O[C@@H]4O[C@H](CO)[C@@H](O)[C@@H](O)[C@H]4NC(C)=O)[C@@H](O)[C@H]3N)[C@@H](CO)[C@@H]2O1,3.51,
